Reference: patent US20050063998A1, “Oral solution containing galantamine and a sweetening agent” (priority 1999, published 2005)
“Also recorded” adds a separate entry of the source. Structures can show the parent of a compound that is named as a salt.

Assay: Stability of a galantamine hydrobromide aqueous solution as a function of pH (HPLC, degradation products)
Format: physicochemical
Conditions: 10 mg/ml aqueous solution; neutral (water pH 5.2); 80° C.; storage 24 hours
Description: (c) Stability of a Galantamine Hydrobromide Aqueous Solution as a Function of pH
A galantamine hydrobromide 10 mg/ml aqueous solution was stored in acid, neutral and alkaline conditions at 80° C. for 1 up to 24 hours. After storage, the solutions were analyzed using HPLC for the presence of degradation products.

For `COc1ccc2c3c1O[C@H]1C[C@@H](O)C=C[C@@]31CCN(C)C2` [Galantamine hydrobromide, [4aS-(4aα, 6β, 8aR*)]-4a, 5,9,10,11,12-hexa-hydro-3-methoxy-11-methyl-6H-benzofuro[3a,3,2-ef][2]benzazepin-6-ol], the Degradation compounds was “remained stable; also recorded: No degradation detected”.
